Laboratory results taken from patent US12397059B2, “Compounds and methods for the treatment and prevention of fibrotic disease states and cancer” (Purdue Research Foundation, priority 2019, dated 2025).
Entries after “also recorded” stand apart in the source; their conditions may differ.

Experiments:
[1] = test system: M2-induced human monocyte-derived macrophages; test: Reprogramming of M2-induced human monocyte-derived macrophages with FA-glucosamine competition; assay type: cell-based; conditions: 100 nM, 2 hours then 46 hours without drug
Description: Changes in both sets of cytokines were inhibited by blockade of unoccupied folate receptors with excess FA-glucosamine (2+46 h, competition).

[2] = test system: THP-1 cells polarized to M2-like macrophages; test: Reprogramming of M2-like THP-1 macrophages, marker gene analysis by qPCR; assay type: cell-based, human
Description: THP-1 cells were seeded into 96-well plates at a density of 60,000 cells/well. Cells were differentiated into unpolarized macrophages by 48 hours incubation with 200 nM PMA followed by 24 hours incubation in fresh RPMI medium. […] Cultures were maintained at 37° C. in a humidified 5% CO2 incubator.
Total RNA was isolated from 1×10^5 —2×10^5 macrophages using a Quick-RNA™ MicroPrep kit (Zymo Research, Irvine, CA) according to the manufacturer-recommended protocol. […] IL-6, CXCL10, IFNα, IFN-γ and CD86 were used as markers for an M1 phenotype, while CCL18, CD206, CD163 and Arg1 were employed as markers for the M2 phenotype. IL-1β, PDGFβ, MMP9 and TIMP 3 were measured as indicators of a profibrotic phenotype. IRAK-4 was used as an indicator of TLR7 stimulation. To control for specificity of the amplification products, a melting curve analysis was performed. […] Each sample was analyzed independently in triplicate for each marker.
Primarily, human monocytic (THP-1) cells were induced to the M2-like phenotype using the methods and materials previously described. In particular, THP-1 cells were seeded into 96-well plates at a density of 60,000 cells/well. Cells were differentiated into unpolarized macrophages by 48 h incubation with 200 nM PMA followed by 24 hours incubation in fresh RPMI medium. The resulting macrophages were polarized to an M2-like phenotype by incubation with 20 ng/ml IL-4, 20 ng/ml IL-13, and 5 ng/mL IL-6 for 48 h. Cultures were maintained at 37° C. in a humidified 5% CO2 incubator.
In addition to the nonconjugated TLR7 agonist, conjugated compounds of the present disclosure were likewise evaluated. […] The cells were subsequently harvested for gene analysis by qPCR and the relative expression of CCL18 (FIG. 14A), CD206 (FIG. 14B), and IL-1β (FIG. 14C) analyzed.

[3] = test system: healthy mice; test: Plasma cytokine levels in healthy mice after tail vein injection; assay type: in vivo
Description: (FIGS. 20A-C) Measurement of plasma IL-6 (FIG. 20A), IFNα (FIG. 20B) and TNFα (FIG. 20C) (n=3). (FIGS. 20D-F). The effect of drug concentration on plasma levels of IL-6 (FIG. 20D), IFNα (FIG. 20E), and TNFα (FIG. 20F) was determined at 1.5 h, 1 h, or 1 h after treatment, respectively (n=2) (FIG. 20G).

[4] = test system: BM-induced experimental pulmonary fibrosis in mice; test: BM-induced pulmonary fibrosis: markers in bronchoalveolar lavage cells/fluid (qPCR, ELISA); assay type: in vivo
Description: Fresh water and folate-deficient diet were freely available.
Bronchoalveolar lavage fluid (BALF) was then analyzed to determine how the targeted TLR7 agonist works. BALF samples were centrifuged at 1500 rpm for 5 min at 4° C. and the supernatant was aliquoted and stored at −80° C. for cytokine/chemokine analyses. Cell pellets were resuspended and cultured in pre-warmed RPMI 1640 medium for 2 hours and then washed 3× with pre-warmed PBS prior to harvesting for qPCR assay. The right lung was then tied with a nylon string and used for subsequent analysis of hydroxyproline content. The left lung was inflated with 1 ml PBS using the inserted syringe and transferred to 10% formalin solution for subsequent histological analyses.
CCL18 and IL-1β were quantified in induced THP-1 cell supernatants using a human DuoSet ELISA Development System (R&D Systems Europe, Abingdon, UK; #DY394-05) and an IL-1 beta Human ELISA Kit (Thermo Fisher Scientific, Waltham, MA; #BMS224-2) as described by manufactures. BALF samples were analyzed for mouse IFN-γ using ELISA MAX™ Deluxe (Biolegend, San Diego, CA; #430804).

[5] = Stability during incubation in culture media; assay type: physicochemical; conditions: 37° C. in the culture media, 48 hours
Description: Indeed, Compound 1B retained the original structure after 48 hours incubation.

[6] = 2 hours with drug, then drug-free medium
[7] = incubated 2 hours, harvested at once or after a further 46 hours
[8] = BALF cells day 21, i.v. every other day from day 10

CCCCc1nc2c(N)nc3ccccc3c2n1CC(C)(C)OC(=O)OCCSSCC(NC(=O)CCC(NC(=O)c1ccc(NCc2cnc3nc(N)[nH]c(=O)c3n2)cc1)C(=O)O)C(=O)O (centres unmarked) [Compound 1B]
downregulation of biomarkers in presence of excess FA-glucosamine (competitor) [1]: blocked | TNFα induction [2, 6]: dramatically improved | potency relative to Compound 1A [2, 6]: superior potency relative to Compound 1A | marker changes (FIGS. 3A-3F) compared with nontargeted TLR7 agonist ([2]; M2-induced THP-1, 48 hours incubation): same qualitative changes were observed, only the magnitude of the impact of Compound 1B was somewhat reduced | PDGFα ([2]; data not shown): no significant difference | M1-like phenotype (CD86 mRNA, TNFα levels) [2, 7]: upregulated | profibrotic/M2-type markers (CCL18, CD206, IL-1β, PDGFβ mRNA) [2, 7]: downregulated profibrotic/M2-type markers of macrophages more than Compound 1A | systemic cytokine release (plasma IL-6, IFNα, TNFα) ([3]; 10 nmol tail vein): does not | inflammatory cytokine release, dose comparison ([3]; effect of drug concentration): stimulates less inflammatory cytokine release than half the dose of Compound 1A | CD86 transcripts (antifibrotic marker, qPCR) ([4]; BALF cells day 21): upregulated; also recorded: elevated | IRAK-4 ([4]; BALF cells day 21): upregulated; also recorded: upregulation | Arg1 (profibrotic marker, qPCR) [4, 8]: downregulated; also recorded: suppressed | MMP9 (profibrotic marker, qPCR) [4, 8]: downregulated; also recorded: suppressed | TIMP 3 (profibrotic marker, qPCR) [4, 8]: downregulated; also recorded: suppressed | IFN-γ concentration (ELISA of lavage fluid) ([4]; day 21): upregulated; also recorded: elevated | total number of BALF cells ([4]; different doses): decreased in a dose-dependent manner | stability during incubation [5]: remained stable
